The record followed here is patent US20180327719A1, “METHOD FOR PRODUCING PANCREATIC BUD CELLS” (Kyoto University, priority 2015, published 2018).

Holding throughout (format): cell-based, human
Assay [1] has as its system PDX1+/NKX6.1− cells derived from iPS cell line (585A1). The experiment in a line: Cell number count after Stage 3 culture with AT7867. Particulars: 0.01 μM to 50 μM AT7867, 4 days, versus DMSO negative control (FIG. 2). As for the experimental part:
(§1) The medium in the cell culture obtained in Stage 2-3 was changed to Improved MEM Zinc Option medium (15×10^4/ml) supplemented with 100 ng/ml KGF, 0.2 μM LDN193189, 50 ng/ml EGF (R&D systems, Inc.), indicated concentrations (0.01 μM to 50 μM) of AT7867 (Selleck Chemicals), 1% B-27 (DMSO as negative control) and the cells were further cultured for 4 days.

The next assay concerns PDX1+ cells. The experiment in a line: Immunostaining with anti-PDX1 and anti-Ki67 antibodies in Stage 3. Particulars: 1 μM AT7867, 1 to 4 days after addition in Stage 3 (FIG. 3). As for the experimental part:
as §1

A further assay has as its system NKX6.1+ cells. The experiment in a line: Immunostaining with anti-NKX6.1 antibody after Stage 3. Conditions: indicated concentrations of AT7867, after Stage 3 (FIG. 4A, 4B). The protocol: as §1
A further assay concerns PDX1+/NKX6.1+ cells. The experiment in a line: Double staining with anti-PDX1 and anti-NKX6.1 antibodies (flow cytometry) after Stage 3. Conditions: addition of AT7867, after Stage 3 (FIGS. 5A and B). The protocol: as §1
Background: Flow cytometry measures light scatter and fluorescence of single cells or particles in a stream.

Assay [2] deals with PDX1, PTF1A, and NKX6.1 genes. The assay can be described thus: Quantitative PCR of PDX1, PTF1A and NKX6.1 gene expression during Stage 3. Particulars: 1 μM AT7867, Day 0 to Day 4 of Stage 3, standardized with GAPDH, versus DMSO (FIG. 6). As for the experimental part: In Stage the cells were cultured in the presence of 1 μM AT7867. Cells were collected every day from Day 0 to Day 4 in Stage 3 and expression of PDX1, PTF1A, and NKX6.1 genes was measured by quantitative PCR. RNAs were extracted from the cells using RNeasy kit (Qiagen) and the reverse transcription reaction was performed with ReverTra Ace qPCR RT Master Mix (Toyobo) and oligo (dT) 20 primer. The quantitative PCR was performed with SYBR Premix Ex Taq II (Takara) using StepOnePlus™ Real-Time PCR System (Applied Biosystems). The gene expression was standardized with the expression of GAPDH gene and the relative gene expression was calculated from the relative standard curve (FIG. 6). […] PTF1A and NKX6.1 are transcription factors that indicate the differentiation of the cells into pancreatic bud cells

The structures appear in SMILES notation.

Take `Clc1ccc(C2(c3ccc(-c4cn[nH]c4)cc3)CCNCC2)cc1` [AT7867]: the “number of cells obtained in Stage 3” value in assay [1] is recorded as “increased in a manner dependent on the concentration of AT7867”. For the same compound, the “PDX1 status of proliferated (Ki67+) cells” value in the assay on PDX1+ cells is recorded as “proliferated cells were positive for at least PDX1”. The “cells positive for at least NKX6.1” value in the assay on NKX6.1+ cells was “increased in a manner dependent on the concentration of AT7867”. In the assay on PDX1+/NKX6.1+ cells, the “PDX1+/NKX6.1+ cells” value was “increased by the addition of AT7867”. In assay [2], the “expression of NKX6.1” value was “increased over time”, the “expression of PDX1” value was “increased over time” and the “expression of PTF1A” value is “increased over time”.
